Measured values reported in patent publication US7030143B2, “Heterocyclic compounds” (Nippon Shinyaku Co., Ltd., priority 2000, dated 2006).
Values belong to the compound of their own block, whether it stands above or below them.

What was measured:
[1] = system: KK-A^y mice; assay: Effects on carbohydrate and lipid metabolism in KK-A^y mouse; type: in vivo; conditions: oral, 4 days; for Percent change of each parameter compared to control group (%): AI: Atherogenic Index = (TC − HDL-C)/HDL-C; for Percent change of each parameter compared to control group (%): BG: plasma glucose level; for Percent change of each parameter compared to control group (%): Ins: plasma insulin level; for Percent change of each parameter compared to control group (%): TG: plasma triglyceride level; for Percent change of each parameter compared to control group (%): HDL-C: serum HDL-C level; for Percent change of each parameter compared to control group (%): (V)LDL-C: sum of VLDL-C and LDL-C level in serum
Method: The experiment was conducted using the compounds described in the Examples as test compounds and Troglitazone (5-[4-(6-hydroxy-2,5,7,8-tetramethylchroman-2-ylmethoxy)benzyl]-2,4-thiazolidinedione) as a control compound.
Each test compound was orally administered to KK-A^y mice (10 week old, male), NIDDM model animal, for 4 days at a given dosage. On the next day of the last administration, blood was collected from tail end blood vessels under non-fasting conditions to prepare heparinized plasma. Thereafter, blood was collected from an abdominal large vein under pentobarbital anesthesia to prepare serum. The glucose level (BG), triglyceride level (TG) and insulin level (Ins) in plasma were measured using a glucose CII-test Wako (Wako Pure Chemical Industries, Ltd), CLINTECH TG-S (IATORON LABORATORIES, INC.) or triglyceride E-test WAKO (Wako Pure Chemical Industries, Ltd), and a rat insulin measurement kit (Morinaga Biochemistry Research Institute) or REBIS-insulin-mouse-T (Mouse Insulin ELISA (TMB) KIT, Shibayagi Co., Ltd), respectively. Also, the sum of VLDL-C level and LDL-C level in serum (hereinafter, referred to as “(V)LDL-C”), total cholesterol level (TC) and HDL-C level were measured using a high performance liquid chromatography system for the measurement of lipoprotein cholesterol (TOSOH CORPORATION). (V)LDL-C level was measured because VLDL-C and LDL-C cannot be measured separately. Atherogenic Index (AI) was calculated according to the following formula: AI=[(TC level)−(HDL-C level)]/(HDL-C level).

SMILES: Cc1oc(-c2ccc(F)cc2)nc1CCCCCCOC(C)(C)C(=O)O [Example 40, 2-{6-[2-(4-Fluorophenyl)-5-methyloxazol-4-yl]hexyloxy}-2-methylpropionic acid]
melting point: 64 to 67 °C

SMILES: Cc1oc(-c2ccc(C(C)(C)C)cc2)nc1CCCCCCOC(C)(C)C(=O)O [Example 41, 2-{6-[2-(4-tert-Butylphenyl)-5-methyloxazol-4-yl]hexyloxy}-2-methylpropionic acid]
melting point: 89 to 91 °C

SMILES: Cc1oc(-c2ccncc2)nc1CCCCCCOC(C)(C)C(=O)O [Example 51, 2-Methyl-2-{6-[5-methyl-2-(4-pyridyl)oxazol-4-yl]hexyloxy}propionic acid]
melting point: 91 to 93 °C

SMILES: Cc1ccc(-c2nc(CCCCC3COC(C)(C(=O)O)OC3)c(C)o2)cc1C (stereo not shown) [Example 73, 2-Methyl-c-5-{4-[5-methyl-2-(3,4-dimethylphenyl)-oxazol-4-yl]butyl}-1,3-dioxane-r-2-carboxylic acid]
Percent change of each parameter compared to control group (%): AI ([1]; dose 3 mg/kg): −85% | Percent change of each parameter compared to control group (%): BG ([1]; dose 3 mg/kg): −53% | Percent change of each parameter compared to control group (%): Ins ([1]; dose 3 mg/kg): −68% | Percent change of each parameter compared to control group (%): TG ([1]; dose 3 mg/kg): −92% | Percent change of each parameter compared to control group (%): HDL-C ([1]; dose 3 mg/kg): −8% | Percent change of each parameter compared to control group (%): (V)LDL-C ([1]; dose 3 mg/kg): −90%

SMILES: COc1ccc(-c2nc(CCCCC3COC(C)(C(=O)O)OC3)c(C)o2)cc1 (stereo not shown) [Example 74, 2-Methyl-c-5-{4-[5-methyl-2-(4-methoxyphenyl)oxazol-4-yl]butyl}-1,3-dioxane-r-2-carboxylic acid]
Percent change of each parameter compared to control group (%): AI ([1]; dose 3 mg/kg): −72% | Percent change of each parameter compared to control group (%): BG ([1]; dose 3 mg/kg): −18% | Percent change of each parameter compared to control group (%): Ins ([1]; dose 3 mg/kg): −33% | Percent change of each parameter compared to control group (%): TG ([1]; dose 3 mg/kg): −46% | Percent change of each parameter compared to control group (%): HDL-C ([1]; dose 3 mg/kg): 55% | Percent change of each parameter compared to control group (%): (V)LDL-C ([1]; dose 3 mg/kg): −58%

SMILES: Cc1oc(-c2cccs2)nc1CCCCC1COC(C)(C(=O)O)OC1 (stereo not shown) [Example 75, 2-Methyl-c-5-{4-[5-methyl-2-(2-thienyl)oxazol-4-yl]butyl}-1,3-dioxane-r-2-carboxylic acid]
Percent change of each parameter compared to control group (%): AI ([1]; dose 3 mg/kg): −61% | Percent change of each parameter compared to control group (%): BG ([1]; dose 3 mg/kg): −23% | Percent change of each parameter compared to control group (%): Ins ([1]; dose 3 mg/kg): −29% | Percent change of each parameter compared to control group (%): TG ([1]; dose 3 mg/kg): −47% | Percent change of each parameter compared to control group (%): HDL-C ([1]; dose 3 mg/kg): 37% | Percent change of each parameter compared to control group (%): (V)LDL-C ([1]; dose 3 mg/kg): −50%

SMILES: Cc1ccc(-c2nc(Cc3cccc(CC4COC(C)(C(=O)O)OC4)c3)c(C)o2)cc1 (stereo not shown) [Example 81, 2-Methyl-t-5-[3-{[5-methyl-2-(p-tolyl)oxazol-4-yl]methyl}benzyl]-1,3-dioxane-r-2-carboxylic acid]
Percent change of each parameter compared to control group (%): AI ([1]; dose 1 mg/kg): −83% | Percent change of each parameter compared to control group (%): BG ([1]; dose 1 mg/kg): −8% | Percent change of each parameter compared to control group (%): Ins ([1]; dose 1 mg/kg): −21% | Percent change of each parameter compared to control group (%): TG ([1]; dose 1 mg/kg): −62% | Percent change of each parameter compared to control group (%): HDL-C ([1]; dose 1 mg/kg): 32% | Percent change of each parameter compared to control group (%): (V)LDL-C ([1]; dose 1 mg/kg): −76%

SMILES: Cc1ccc(-c2nc(CCCCCCOC(C)(C)C#N)c(C)o2)cc1 [Example 85, 2-Methyl-2-{6-[5-methyl-2-(p-tolyl)oxazol-4-yl]-hexyloxy}propiononitrile]
melting point: 36 °C

SMILES: Cc1ccc(-c2nc(CCCCCCOC(C)(C)c3nnn[nH]3)c(C)o2)cc1 [Example 86, 5-[1-Methyl-1-{6-[5-methyl-2-(p-tolyl)oxazol-4-yl]hexyloxy}ethyl]tetrazole]
melting point: 87 °C

SMILES: Cc1c(C)c2c(c(C)c1O)CCC(C)(COc1ccc(CC3SC(=O)NC3=O)cc1)O2 (stereo not shown) [Troglitazone, 5-[4-(6-hydroxy-2,5,7,8-tetramethylchroman-2-ylmethoxy)benzyl]-2,4-thiazolidinedione, reference compound]
Percent change of each parameter compared to control group (%): AI ([1]; dose 300 mg/kg): −7% | Percent change of each parameter compared to control group (%): BG ([1]; dose 300 mg/kg): −9% | Percent change of each parameter compared to control group (%): Ins ([1]; dose 300 mg/kg): −22% | Percent change of each parameter compared to control group (%): TG ([1]; dose 300 mg/kg): −11% | Percent change of each parameter compared to control group (%): HDL-C ([1]; dose 300 mg/kg): −8% | Percent change of each parameter compared to control group (%): (V)LDL-C ([1]; dose 300 mg/kg): −26%

The remaining lines, values ahead:

melting point: 66 to 68 °C
SMILES: Cc1oc(-c2ccccc2)nc1CCCCCOC(C)(C)C(=O)O (hydrate or solvate) [Example 34, 2-Methyl-2-[5-(5-methyl-2-phenyloxazol-4-yl)pentyloxy]propionic acid]

melting point: 70 to 71 °C
SMILES: Cc1oc(-c2ccccc2)nc1CCCCCCCOC(C)(C)C(=O)O [Example 36, 2-Methyl-2-[7-(5-methyl-2-phenyloxazol-4-yl)heptyloxy]propionic acid]

melting point: 88.5 to 89 °C
SMILES: CCc1oc(-c2ccccc2)nc1CCCCCCOC(C)(C)C(=O)O [Example 42, 2-[6-(5-Ethyl-2-phenyloxazol-4-yl)hexyloxy]-2-methylpropionic acid]

melting point: 75 to 77 °C
SMILES: CC(C)(OCCCCCCc1coc(-c2ccccc2)n1)C(=O)O [Example 43, 2-Methyl-2-[6-(2-phenyloxazol-4-yl)hexyloxy]propionic acid]

melting point: 72 to 75 °C
SMILES: CC(C)(OCCCCCCCc1coc(-c2ccccc2)n1)C(=O)O [Example 44, 2-Methyl-2-[7-(2-phenyloxazol-4-yl)heptyloxy]propionic acid]

melting point: 59 to 61 °C
SMILES: CC(C)(OCCCCCCCCc1coc(-c2ccccc2)n1)C(=O)O [Example 45, 2-Methyl-2-[8-(2-phenyloxazol-4-yl)octyloxy]propionic acid]

melting point: 91 to 93 °C
SMILES: CC(C)(OCCCCCCCc1coc(-c2ccc(Cl)cc2)n1)C(=O)O [Example 46, 2-{7-[2-(4-Chlorophenyl)oxazol-4-yl]heptyloxy}-2-methylpropionic acid]

melting point: 67 to 74 °C
SMILES: CC(C)(OCCCCCCCc1coc(-c2ccc(F)cc2)n1)C(=O)O [Example 47, 2-{7-[2-(4-Fluorophenyl)oxazol-4-yl]heptyloxy}-2-methylpropionic acid]

melting point: 80 to 83 °C
SMILES: CC(C)(OCCCCCCc1coc(-c2ccc(F)cc2)n1)C(=O)O [Example 48, 2-{6-[2-(4-Fluorophenyl)oxazol-4-yl]hexyloxy}-2-methylpropionic acid]

melting point: 71 to 72 °C
SMILES: CC(C)(OCCCCCCCc1csc(-c2ccccc2)n1)C(=O)O [Example 49, 2-Methyl-2-[7-(2-phenylthiazol-4-yl)heptyloxy]propionic acid]

melting point: 64 to 70 °C
SMILES: CC(C)(OCCCCCCCCc1csc(-c2ccccc2)n1)C(=O)O [Example 50, 2-Methyl-2-[8-(2-phenylthiazol-4-yl)octyloxy]propionic acid]
